Measured values: patent publication US6054435A, “6-O-substituted macrolides having antibacterial activity” (priority 1999, dated 2000)
Converted amounts (≈) assume the structure as drawn.

Assays:
Assay in all cases: in vitro antibacterial activity (MIC), agar dilution
Format in all cases: cell-based
[1] = system: Staphylococcus aureus A-5278; details: organism code CC; BHI agar, 35-37° C., 20 to 24 hours; unit assumed
Procedure, shortened: (§1)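 BHI agar incorporation method; twelve compound concentrations. Streptococcus and other slow growers inoculated at 1:10, other strains at 1:100. Visual MIC read-out versus growth control.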

[2] = system: Mycobacterium smegmatis ATCC 114; details: organism code UU; BHI agar, 35-37° C., 20 to 24 hours; unit assumed
Procedure, shortened: as §1

[3] = system: Streptococcus Pneumonia ATCC6303; details: organism code XX; BHI agar, 35-37° C., 20 to 24 hours; unit assumed
Procedure, shortened: as §1

[4] = system: Staphylococcus aureus CMX 642A; details: organism code DD; BHI agar, 35-37° C., 20 to 24 hours; unit assumed
Procedure, shortened: as §1

[5] = system: Streptococcus pyogenes 930; details: organism code MM; BHI agar, 35-37° C., 20 to 24 hours; unit assumed
Procedure, shortened: as §1

[6] = system: Streptococcus pyogenes EES61; details: organism code LL; BHI agar, 35-37° C., 20 to 24 hours; unit assumed
Procedure, shortened: as §1

[7] = system: Streptococcus Pneumonia 5979; details: organism code ZZ; BHI agar, 35-37° C., 20 to 24 hours; unit assumed
Procedure, shortened: as §1

[8] = system: Streptococcus agalactiae CMX 508; details: organism code KK; BHI agar, 35-37° C., 20 to 24 hours; unit assumed
Procedure, shortened: as §1

[9] = system: Haemophilis Influenzae DILL AMP R; details: organism code WW; BHI agar, 35-37° C., 20 to 24 hours; unit assumed
Procedure, shortened: as §1

[10] = system: Streptococcus Pneumonia GYR 1171; details: organism code YY; BHI agar, 35-37° C., 20 to 24 hours; unit assumed
Procedure, shortened: as §1

[11] = system: Nocardia Asteroides ATCC9970; details: organism code VV; BHI agar, 35-37° C., 20 to 24 hours; unit assumed
Procedure, shortened: as §1

[12] = system: Streptococcus bovis A-5169; details: organism code JJ; BHI agar, 35-37° C., 20 to 24 hours; unit assumed
Procedure, shortened: as §1

Escherichia coli DC-2 = details: organism code SS; BHI agar, 35-37° C., 20 to 24 hours; unit assumed
Procedure, shortened: as §1

[13] = system: Enterococcus faecium ATCC 8043; details: organism code II; BHI agar, 35-37° C., 20 to 24 hours; unit assumed
Procedure, shortened: as §1

Escherichia coli SS = details: organism code RR; BHI agar, 35-37° C., 20 to 24 hours; unit assumed
Procedure, shortened: as §1

Candida albicans CCH 442 = details: organism code TT; BHI agar, 35-37° C., 20 to 24 hours; unit assumed
Procedure, shortened: as §1

[14] = system: Staphylococcus aureus A5177; details: organism code BB; BHI agar, 35-37° C., 20 to 24 hours; unit assumed
Procedure, shortened: as §1

[15] = system: Streptococcus pyogenes PIU 2548; details: organism code NN; BHI agar, 35-37° C., 20 to 24 hours; unit assumed
Procedure, shortened: as §1

[16] = system: Streptococcus Pneumonia 5649; details: organism code ZZA; BHI agar, 35-37° C., 20 to 24 hours; unit assumed
Procedure, shortened: as §1

[17] = system: Staphylococcus aureus 1775; details: organism code GG; BHI agar, 35-37° C., 20 to 24 hours; unit assumed
Procedure, shortened: as §1

[18] = system: Micrococcus luteus ATCC 9341; details: organism code OO; BHI agar, 35-37° C., 20 to 24 hours; unit assumed
Procedure, shortened: (§2)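 Test compound serially diluted in Brain Heart Infusion agar across twelve plates; inocula of 1:100 dilution (1:10 for slow growers such as Streptococcus) applied by Steers replicator. MIC taken visually as lowest concentration giving no growth, slight haze or sparse isolated colonies versus drug-free growth control.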

[19] = system: Staphylococcus aureus ATCC 6538P; details: organism code AA; BHI agar, 35-37° C., 20 to 24 hours; unit assumed
Procedure, shortened: as §1

[20] = system: Staphylococcus aureus CMX 553; details: organism code FF; BHI agar, 35-37° C., 20 to 24 hours; unit assumed
Procedure, shortened: as §1

[21] = system: Staphylococcus aureus NCTC10649M; details: organism code EE; BHI agar, 35-37° C., 20 to 24 hours; unit assumed
Procedure, shortened: as §1

[22] = system: Staphylococcus epidermidis 3519; details: organism code HH; BHI agar, 35-37° C., 20 to 24 hours; unit assumed
Procedure, shortened: as §1

Escherichia coli JUHL = details: organism code QQ; BHI agar, 35-37° C., 20 to 24 hours; unit assumed
Procedure, shortened: as §1

[23] = system: Micrococcus luteus ATCC 4698; details: organism code PP; BHI agar, 35-37° C., 20 to 24 hours; unit assumed
Procedure, shortened: as §2

## CC[C@H]1OC(=O)[C@H](C)C(=O)[C@H](C)[C@@H](O[C@@H]2O[C@H](C)C[C@H](N(C)C)[C@H]2O)[C@](C)(OCC#Cc2ccc(-c3ccc(C=O)o3)cc2)C[C@@H](C)C(=O)[C@H](C)[C@H]2NC(=O)O[C@@]21C [Example 24]
[1]
  MIC: > 100 µg/mL
[2]
  MIC: 3.1 µg/mL (≈ 3.84 µM)
[3]
  MIC: 0.03 µg/mL (≈ 0.0372 µM)
[4]
  MIC: 0.39 µg/mL (≈ 0.483 µM)
[5]
  MIC: 25 µg/mL (≈ 31 µM)
[6]
  MIC: 0.1 µg/mL (≈ 0.124 µM)
[7]
  MIC: 2 µg/mL (≈ 2.48 µM)
[8]
  MIC: 0.1 µg/mL (≈ 0.124 µM)
[9]
  MIC: 8 µg/mL (≈ 9.91 µM)
[10]
  MIC: 0.03 µg/mL (≈ 0.0372 µM)
[11]
  MIC: 0.1 µg/mL (≈ 0.124 µM)
[12]
  MIC: 0.1 µg/mL (≈ 0.124 µM)
Escherichia coli DC-2
  MIC: > 100 µg/mL
[13]
  MIC: 0.2 µg/mL (≈ 0.248 µM)
Escherichia coli SS
  MIC: 1.56 µg/mL (≈ 1.93 µM)
Candida albicans CCH 442
  MIC: > 100 µg/mL
[14]
  MIC: 0.39 µg/mL (≈ 0.483 µM)
[15]
  MIC: 0.78 µg/mL (≈ 0.967 µM)
[16]
  MIC: 0.25 µg/mL (≈ 0.31 µM)
[17]
  MIC: > 100 µg/mL
[18]
  MIC: 0.02 µg/mL (≈ 0.0248 µM)
[19]
  MIC: 0.39 µg/mL (≈ 0.483 µM)
[20]
  MIC: 0.39 µg/mL (≈ 0.483 µM)
[21]
  MIC: 0.39 µg/mL (≈ 0.483 µM)
[22]
  MIC: 0.39 µg/mL (≈ 0.483 µM)
Escherichia coli JUHL
  MIC: > 100 µg/mL
[23]
  MIC: 0.39 µg/mL (≈ 0.483 µM)

## CC[C@H]1OC(=O)[C@H](C)C(=O)[C@H](C)[C@@H](O[C@@H]2O[C@H](C)C[C@H](N(C)C)[C@H]2O)[C@](C)(OCC#Cc2ccc(-c3ccco3)s2)C[C@@H](C)C(=O)[C@H](C)[C@H]2NC(=O)O[C@@]21C [Example 23]
[1]
  MIC: > 100 µg/mL
[2]
  MIC: 0.78 µg/mL (≈ 0.994 µM)
[3]
  MIC: 0.03 µg/mL (≈ 0.0382 µM)
[4]
  MIC: 0.05 µg/mL (≈ 0.0637 µM)
[5]
  MIC: 6.2 µg/mL (≈ 7.9 µM)
[6]
  MIC: 0.1 µg/mL (≈ 0.127 µM)
[7]
  MIC: 8 µg/mL (≈ 10.2 µM)
[8]
  MIC: ≤ 0.005 µg/mL
[9]
  MIC: 2 µg/mL (≈ 2.55 µM)
[10]
  MIC: 0.03 µg/mL (≈ 0.0382 µM)
[11]
  MIC: 0.02 µg/mL (≈ 0.0255 µM)
[12]
  MIC: 0.01 µg/mL (≈ 0.0127 µM)
Escherichia coli DC-2
  MIC: 50 µg/mL (≈ 63.7 µM)
[13]
  MIC: 0.02 µg/mL (≈ 0.0255 µM)
Escherichia coli SS
  MIC: 0.39 µg/mL (≈ 0.497 µM)
Candida albicans CCH 442
  MIC: > 100 µg/mL
[14]
  MIC: 0.05 µg/mL (≈ 0.0637 µM)
[15]
  MIC: 0.1 µg/mL (≈ 0.127 µM)
[16]
  MIC: 0.25 µg/mL (≈ 0.318 µM)
[17]
  MIC: > 100 µg/mL
[18]
  MIC: 0.01 µg/mL (≈ 0.0127 µM)
[19]
  MIC: 0.05 µg/mL (≈ 0.0637 µM)
[20]
  MIC: 0.05 µg/mL (≈ 0.0637 µM)
[21]
  MIC: 0.05 µg/mL (≈ 0.0637 µM)
[22]
  MIC: 0.05 µg/mL (≈ 0.0637 µM)
Escherichia coli JUHL
  MIC: 50 µg/mL (≈ 63.7 µM)
[23]
  MIC: 0.05 µg/mL (≈ 0.0637 µM)

## CC[C@H]1OC(=O)[C@H](C)C(=O)[C@H](C)[C@@H](O[C@@H]2O[C@H](C)C[C@H](N(C)C)[C@H]2O)[C@](C)(OCC#Cc2ccc(-c3cncs3)s2)C[C@@H](C)C(=O)[C@H](C)[C@H]2NC(=O)O[C@@]21C [Example 29]
[1]
  MIC: > 100 µg/mL
[2]
  MIC: 0.39 µg/mL (≈ 0.486 µM)
[3]
  MIC: ≤ 0.004 µg/mL
[4]
  MIC: 0.05 µg/mL (≈ 0.0623 µM)
[5]
  MIC: 3.1 µg/mL (≈ 3.87 µM)
[6]
  MIC: 0.01 µg/mL (≈ 0.0125 µM)
[7]
  MIC: 1 µg/mL (≈ 1.25 µM)
[8]
  MIC: 0.01 µg/mL (≈ 0.0125 µM)
[9]
  MIC: 2 µg/mL (≈ 2.49 µM)
[10]
  MIC: ≤ 0.004 µg/mL
[11]
  MIC: ≤ 0.005 µg/mL
[12]
  MIC: ≤ 0.005 µg/mL
Escherichia coli DC-2
  MIC: 50 µg/mL (≈ 62.3 µM)
[13]
  MIC: 0.01 µg/mL (≈ 0.0125 µM)
Escherichia coli SS
  MIC: 0.1 µg/mL (≈ 0.125 µM)
Candida albicans CCH 442
  MIC: > 100 µg/mL
[14]
  MIC: 0.05 µg/mL (≈ 0.0623 µM)
[15]
  MIC: 0.05 µg/mL (≈ 0.0623 µM)
[16]
  MIC: 0.25 µg/mL (≈ 0.312 µM)
[17]
  MIC: > 100 µg/mL
[18]
  MIC: ≤ 0.005 µg/mL
[19]
  MIC: 0.05 µg/mL (≈ 0.0623 µM)
[20]
  MIC: 0.02 µg/mL (≈ 0.0249 µM)
[21]
  MIC: 0.02 µg/mL (≈ 0.0249 µM)
[22]
  MIC: 0.05 µg/mL (≈ 0.0623 µM)
Escherichia coli JUHL
  MIC: 25 µg/mL (≈ 31.2 µM)
[23]
  MIC: 0.05 µg/mL (≈ 0.0623 µM)

## CC[C@H]1OC(=O)[C@H](C)C(=O)[C@H](C)[C@@H](O[C@@H]2O[C@H](C)C[C@H](N(C)C)[C@H]2O)[C@](C)(OCC#Cc2ccc(-c3ncccn3)s2)C[C@@H](C)C(=O)[C@H](C)[C@H]2NC(=O)O[C@@]21C [Example 5]
[1]
  MIC: > 100 µg/mL
[2]
  MIC: 0.78 µg/mL (≈ 0.979 µM)
[3]
  MIC: 0.03 µg/mL (≈ 0.0376 µM)
[4]
  MIC: 0.05 µg/mL (≈ 0.0627 µM)
[5]
  MIC: 25 µg/mL (≈ 31.4 µM)
[6]
  MIC: ≤ 0.005 µg/mL
[7]
  MIC: 0.5 µg/mL (≈ 0.627 µM)
[8]
  MIC: 0.01 µg/mL (≈ 0.0125 µM)
[9]
  MIC: 2 µg/mL (≈ 2.51 µM)
[10]
  MIC: 0.03 µg/mL (≈ 0.0376 µM)
[11]
  MIC: 0.01 µg/mL (≈ 0.0125 µM)
[12]
  MIC: ≤ 0.005 µg/mL
Escherichia coli DC-2
  MIC: 25 µg/mL (≈ 31.4 µM)
[13]
  MIC: 0.02 µg/mL (≈ 0.0251 µM)
Escherichia coli SS
  MIC: 0.1 µg/mL (≈ 0.125 µM)
Candida albicans CCH 442
  MIC: > 100 µg/mL
[14]
  MIC: 0.05 µg/mL (≈ 0.0627 µM)
[15]
  MIC: 0.1 µg/mL (≈ 0.125 µM)
[16]
  MIC: 0.25 µg/mL (≈ 0.314 µM)
[17]
  MIC: > 100 µg/mL
[18]
  MIC: 0.01 µg/mL (≈ 0.0125 µM)
[19]
  MIC: 0.02 µg/mL (≈ 0.0251 µM)
[20]
  MIC: 0.02 µg/mL (≈ 0.0251 µM)
[21]
  MIC: 0.05 µg/mL (≈ 0.0627 µM)
[22]
  MIC: 0.05 µg/mL (≈ 0.0627 µM)
Escherichia coli JUHL
  MIC: 25 µg/mL (≈ 31.4 µM)
[23]
  MIC: 0.1 µg/mL (≈ 0.125 µM)
